Data as given in the supplement of paper PMC10307832.

Experiments:
Test in all cases: relative viability (nuclei count vs DMSO), 5 days (fraction); higher = more cells survive
[1] = compound: CN(C)C[C@@H]1CCn2cc(c3ccccc32)C2=C(C(=O)NC2=O)c2cn(c3ccccc23)CCO1 [Ruboxistaurin] + CC1(C)CCC(c2ccc(Cl)cc2)=C(CN2CCN(c3ccc(C(=O)NS(=O)(=O)c4ccc(N[C@H](CCN5CCOCC5)CSc5ccccc5)c(S(=O)(=O)C(F)(F)F)c4)cc3)CC2)C1 [Navitoclax] (partner 0.5 µM)
Procedure, shortened: (§1)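 One day after seeding in 1536-well plates, lung cancer cell lines were dosed by pin tool. Dosing was either single-drug or a fixed anchor-drug dose plus five library-drug doses (not always all listed) in √10 steps. After 5 days, nuclei were stained in one fix-and-stain step and counted on 4× images, and relative viability is the nuclei count of treated wells over that of vehicle wells, given as the median of duplicate plates.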

[2] = compound: CN(C)C[C@@H]1CCn2cc(c3ccccc32)C2=C(C(=O)NC2=O)c2cn(c3ccccc23)CCO1 [Ruboxistaurin] + COc1cc2c(Oc3ccc(NC(=O)C4(C(=O)Nc5ccc(F)cc5)CC4)cc3F)ccnc2cc1OCCCN1CCOCC1 [Foretinib] (partner 0.25 µM)
Procedure, shortened: as §1

[3] = compound: CN(C)C[C@@H]1CCn2cc(c3ccccc32)C2=C(C(=O)NC2=O)c2cn(c3ccccc23)CCO1 [Ruboxistaurin] + COc1cccc2cc(-c3nc([C@H]4CC[C@H](C(=O)O)CC4)n4ncnc(N)c34)[nH]c12 [OSI-027] (partner 0.5 µM)
Procedure, shortened: as §1

[4] = compound: CN(C)C[C@@H]1CCn2cc(c3ccccc32)C2=C(C(=O)NC2=O)c2cn(c3ccccc23)CCO1 [Ruboxistaurin] + Cc1cc(Nc2cc(N3CCN(C)CC3)nc(Sc3ccc(NC(=O)C4CC4)cc3)n2)n[nH]1 [Tozasertib] (partner 0.1 µM)
Procedure, shortened: as §1

[5] = compound: CN(C)C[C@@H]1CCn2cc(c3ccccc32)C2=C(C(=O)NC2=O)c2cn(c3ccccc23)CCO1 [Ruboxistaurin] + Nc1nc2[nH]cc(CCc3ccc(C(=O)N[C@@H](CCC(=O)O)C(=O)O)cc3)c2c(=O)[nH]1 [Pemetrexed] (partner 0.2 µM)
Procedure, shortened: as §1

Cell Line | relative viability ([1]; first compound 0.08 µM) | relative viability ([1]; first compound 0.8 µM) | relative viability ([1]; first compound 2.53 µM) | relative viability ([1]; first compound 8 µM) | relative viability ([2]; first compound 0.08 µM) | relative viability ([2]; first compound 0.8 µM) | relative viability ([2]; first compound 2.53 µM) | relative viability ([2]; first compound 8 µM) | relative viability ([3]; first compound 0.08 µM) | relative viability ([3]; first compound 0.8 µM) | relative viability ([3]; first compound 2.53 µM) | relative viability ([3]; first compound 8 µM) | relative viability ([4]; first compound 0.08 µM) | relative viability ([4]; first compound 0.8 µM) | relative viability ([4]; first compound 2.53 µM) | relative viability ([4]; first compound 8 µM) | relative viability ([5]; first compound 0.08 µM) | relative viability ([5]; first compound 0.8 µM) | relative viability ([5]; first compound 2.53 µM) | relative viability ([5]; first compound 8 µM)
ChaGo-K-1 | 1.38 | 1.08 | 0.925 | 0.703 | 0.916 | 0.888 | 0.965 | 0.912 | 0.658 | 0.572 | 0.618 | 0.449 | 0.225 | 0.242 | 0.231 | 0.211 | 0.272 | 0.247 | 0.26 | 0.267
EKVX | 0.981 | 0.903 | 1.03 | 0.882 | 0.898 | 0.694 | 0.848 | 0.738 | 0.734 | 0.751 | 0.709 | 0.641 | 0.411 | 0.401 | 0.415 | 0.367 | 0.413 | 0.401 | 0.373 | 0.393
EMC-BAC-2 | 1.28 | 1.08 | 1.11 | 1.05 | 1.03 | 0.872 | 1.03 | 0.51 | 0.399 | 0.343 | 0.362 | 0.258 | 0.29 | 0.254 | 0.272 | 0.17 | 0.419 | 0.415 | 0.384 | 0.383
EPLC-272H | 1.28 | 0.96 | 1.41 | 1.18 | 0.853 | 0.548 | 0.703 | 0.472 | 0.308 | 0.266 | 0.298 | 0.249 | 0.205 | 0.247 | 0.253 | 0.247 | 0.32 | 0.359 | 0.352 | 0.325
H3255 | 0.548 | 0.438 | 0.519 | 0.478 | 0.849 | 0.867 | 0.879 | 0.876 | 0.686 | 0.501 | 0.633 | 0.577 | 0.658 | 0.603 | 0.714 | 0.836 | 0.595 | 0.556 | 0.614 | 0.534
HARA | 1.2 | 1.16 | 1.14 | 1.14 | 0.842 | 0.865 | 0.993 | 0.813 | 0.677 | 0.356 | 0.488 | 0.305 | 0.0939 | 0.101 | 0.12 | 0.102 | 0.262 | 0.297 | 0.236 | 0.248
HCC-15 | 0.724 | 0.64 | 0.71 | 0.62 | 1.1 | 0.927 | 1.12 | 1.09 | 0.701 | 0.617 | 0.623 | 0.582 | 0.461 | 0.255 | 0.297 | 0.188 | 0.224 | 0.207 | 0.221 | 0.2
HCC-44 | 1.05 | 0.883 | 1.02 | 0.971 | – | – | – | – | 0.576 | 0.403 | 0.481 | 0.59 | 1.05 | 0.919 | 1.1 | 1.09 | 0.666 | 0.556 | 0.642 | 0.638
